Entries after “also recorded” stand apart in the source; their conditions may differ.

One test relates to microorganisms. In words: Targeting peptide binding to target microorganisms (Tables 3, 10, 12). To be noted: microorganism(s) the targeting peptide binds; binding in aqueous buffers that varied with peptide solubility, preferably 1x PBS.
For the substance “1T-185 (HYHFLLEFGFHKGDYLE; Peptide with targeting and/or antimicrobial activity)”, the “Target(s)” value is “S. mitis; also recorded: S. mutans; also recorded: S. oralis; also recorded: S. salivarious; also recorded: S. sanguinis”.
Turning to “1T-188 (HRKDVYKK; Peptide with targeting and/or antimicrobial activity)”, the “Target(s)” value is on record as “S. sanguinis”.
Same read-out and setting: as for “1T-192 (ILVLLALQVELDSKFQY; Peptide with targeting and/or antimicrobial activity)”, the entry is “S. sanguinis”.
Take “1T-193 (LMIFDKHANLKYKYGNRSFGVEAIM; Peptide with targeting and/or antimicrobial activity)”: the “Target(s)” value is “S. sanguinis”.
On to “1T-195 (AASGFTYCASNGVWHPY; Peptide with targeting and/or antimicrobial activity)”, for which the “Target(s)” value was “S. mutans”.
Still for that read-out and setting: as for “1T-196 (KPEKEKLDTNTLMKVVNKALSLFDRLLIKFGA; Peptide with targeting and/or antimicrobial activity)”, the entry is “F. nucleatum; also recorded: S. sanguinis”.
On the same count and under the same terms, the result for “1T-198 (MPVSKKRYMLSSAYATALGICYGQVATDEKESEITAIPDLLDYLSVEEYLL; Peptide with targeting and/or antimicrobial activity)” reads “P. gingivalis; also recorded: S. epidermidis; also recorded: S. gordonii; also recorded: S. mitis; also recorded: S. mutans; also recorded: S. oralis; also recorded: S. sanguinis”; that for “1T-199 (RAGRIKKLSQKEAEPFEN; Peptide with targeting and/or antimicrobial activity)”, “S. sanguinis”; that for “1T-201 (KRKHENVIVAEEMRVIKN; Peptide with targeting and/or antimicrobial activity)”, “S. sanguinis”.
With “1T-207 (SPLEKYGTGSMTALTFLLGCCLLVLSKKSR; Peptide with targeting and/or antimicrobial activity)”, the “Target(s)” value was “F. nucleatum; also recorded: S. sanguinis”.
Still for that read-out and setting: the result for “1T-215 (VCFKDISVFLSPFRGQEVLFCGKAKHSLIYVIGT; Peptide with targeting and/or antimicrobial activity)” reads “S. sanguinis”; that for “1T-216 (FFLNVIAIRIPHF; Peptide with targeting and/or antimicrobial activity)”, “S. sanguinis”; that for “1T-217 (MLSNVLSRSVVSPNVDIPNSMVILSPLLISISNYH; Peptide with targeting and/or antimicrobial activity)”, “F. nucleatum; also recorded: S. sanguinis”.
Same read-out and setting: as for “1T-218 (KLIFAALGLVFLLIGLRDSRSK; Peptide with targeting and/or antimicrobial activity)”, the entry is “F. nucleatum; also recorded: S. sanguinis”; as for “1T-219 (RNINVSATFITEKSLV; Peptide with targeting and/or antimicrobial activity)”, “S. sanguinis”.
For “1T-222 (RIEASLISAIMFSMFNAIVKFLQK; Peptide with targeting and/or antimicrobial activity)”, the “Target(s)” value is listed as “F. nucleatum; also recorded: S. sanguinis”.
Regarding “1T-237 (EDPVPNHFTLRRNKKEKPSKS; Peptide with targeting and/or antimicrobial activity)”, the “Target(s)” value is “S. sanguinis”.
Take “1T-239 (ADDLLNKRLTDLIMENAETVKTIDLDNSD; Peptide with targeting and/or antimicrobial activity)”: the “Target(s)” value is on record as “A. naeslundii; also recorded: S. gordonii; also recorded: S. mitis; also recorded: S. mutans; also recorded: S. oralis; also recorded: S. sanguinis”.
Regarding “1T-242 (KQVQNTTLIICGTVLLGILFKSYLKSQKSV; Peptide with targeting and/or antimicrobial activity)”, the “Target(s)” value is listed as “F. nucleatum; also recorded: S. sanguinis”.
In the case of “1T-248 (IGGALNSCG; Peptide with targeting and/or antimicrobial activity)”, the “Target(s)” value is reported as “S. sanguinis”.
The same measure, in the same setting: the result for “1T-249 (VFSVLKHTTWPTRKQSWHDFISILEYSAFFALVIFIFDKLLTLGLAELLKRF; Peptide with targeting and/or antimicrobial activity)” reads “F. nucleatum; also recorded: S. sanguinis”.
For “1T-250 (LVQGDTILIENHVGTPVKDDGKDCLIIREADVLAVVND; Peptide with targeting and/or antimicrobial activity)”, the “Target(s)” value is recorded as “S. mitis; also recorded: S. mutans; also recorded: S. oralis”.
As to “1T-252 (MKKNLKRFYALVLGFIIGCLFVSILIFIGY; Peptide with targeting and/or antimicrobial activity)”, the “Target(s)” value is recorded as “F. nucleatum; also recorded: S. sanguinis”.
The same measure, in the same setting: as for “1T-256 (KGKSLMPLLKQINQWGKLYL; Peptide with targeting and/or antimicrobial activity)”, the entry is “S. sanguinis”.
Same read-out and setting: as for “1T-258 (TINIDDKVLDYLKKINSKAITIDLIGCAS; Peptide with targeting and/or antimicrobial activity)”, the entry is “A. naeslundii; also recorded: F. nucleatum; also recorded: P. gingivalis; also recorded: T. denticola; also recorded: S. mitis; also recorded: S. mutans; also recorded: S. oralis”.
The same measure, in the same setting: the result for “1T-259 (EKLKKILLKLAVCGKAWYTL; Peptide with targeting and/or antimicrobial activity)” reads “F. nucleatum; also recorded: P. gingivalis; also recorded: T. denticola; also recorded: S. mitis; also recorded: S. mutans; also recorded: S. oralis; also recorded: S. sanguinis”.

The same test, now with this note: peptide binding in aqueous buffers that varied with peptide solubility; preferably 1x PBS.
“1T-114 (RQAPGPGLVTITAACSAPGSRSR; Peptide with targeting and/or antimicrobial activity)”: the “Target(s) (microorganism bound by the targeting peptide)” value was “A. naeslundii; also recorded: P. gingivalis; also recorded: S. epidermidis; also recorded: S. gordonii; also recorded: S. mitis; also recorded: S. mutans; also recorded: S. oralis; also recorded: S. sanguinis”.
On the same count and under the same terms, as for “1T-117 (GPGVVGPAPFSRLPAHALNL; Peptide with targeting and/or antimicrobial activity)”, the entry is “S. mutans”; as for “1T-119 (SPATQKAPTRAQPSRAPVQDCGDGRPTAAPDDVERLSPR; Peptide with targeting and/or antimicrobial activity)”, “S. gordonii; also recorded: S. mitis; also recorded: S. mutans; also recorded: S. oralis”; as for “1T-121 (FAKETGFGIGGAQEGWWIIADIYGPNPF; Peptide with targeting and/or antimicrobial activity)”, “S. gordonii; also recorded: S. mitis; also recorded: S. mutans; also recorded: S. oralis; also recorded: S. salivarious; also recorded: S. sanguinis”.
Same read-out and setting: the result for “1T-122 (GAIPDPVTHRVDWEEDHQTRPSR; Peptide with targeting and/or antimicrobial activity)” reads “S. mitis”; that for “1T-123 (LVRRNAVAGRSDGLAGAEQLDLVRLQGVL; Peptide with targeting and/or antimicrobial activity)”, “S. gordonii”; that for “1T-124 (LFDERNKIA; Peptide with targeting and/or antimicrobial activity)”, “S. mitis; also recorded: S. mutans; also recorded: S. oralis”.
Still for that read-out and setting: the result for “1T-125 (DAITGGNPPLSDTDGLRP; Peptide with targeting and/or antimicrobial activity)” reads “S. epidermidis; also recorded: S. gordonii; also recorded: S. mutans; also recorded: S. oralis”.
Regarding “1T-126 (QGLARPVLRRIPL; Peptide with targeting and/or antimicrobial activity)”, the “Target(s) (microorganism bound by the targeting peptide)” value was “S. gordonii; also recorded: S. mitis; also recorded: S. mutans”.
“1T-139 (AVAGAAVGALLGNDARSTAVGAAIGGALGAGAGELTKNK; Peptide with targeting and/or antimicrobial activity)”: the “Target(s) (microorganism bound by the targeting peptide)” value was “A. naeslundii; also recorded: S. gordonii; also recorded: S. mitis; also recorded: S. mutans; also recorded: S. oralis”.
As to “1T-141 (KKFIILLFILVQGLIFSATKTLSDIIAL; Peptide with targeting and/or antimicrobial activity)”, the “Target(s) (microorganism bound by the targeting peptide)” value was “F. nucleatum; also recorded: P. gingivalis; also recorded: S. epidermidis; also recorded: S. gordonii; also recorded: S. mitis; also recorded: S. mutans; also recorded: S. oralis; also recorded: S. sanguinis”.
Still for that read-out and setting: as for “1T-145 (VEAGKRNISLENIEKISKGLGISISELFKYIEEGEDKIG; Peptide with targeting and/or antimicrobial activity)”, the entry is “S. mitis; also recorded: S. mutans; also recorded: S. oralis”; as for “1T-154 (YFSFLEIVGMARR; Peptide with targeting and/or antimicrobial activity)”, “P. gingivalis”; as for “1T-159 (IFSLHHFALICSEMGTFAVSKRAKYKWEVL; Peptide with targeting and/or antimicrobial activity)”, “P. gingivalis”.
On the same count and under the same terms, as for “1T-170 (AYGKVFSMDIMLSENDKLIVLRISHHSAWH; Peptide with targeting and/or antimicrobial activity)”, the entry is “P. gingivalis”; as for “1T-177 (GTNVPTQILGYSREERFDYEPAPEQR; Peptide with targeting and/or antimicrobial activity)”, “P. gingivalis; also recorded: S. gordonii; also recorded: S. mitis; also recorded: S. mutans; also recorded: S. oralis; also recorded: S. salivarious; also recorded: S. sanguinis”; as for “1T-185 (HYHFLLEFGFHKGDYLE; Peptide with targeting and/or antimicrobial activity)”, “A. naeslundii; also recorded: F. nucleatum; also recorded: P. gingivalis; also recorded: T. denticola; also recorded: S. gordonii”.

(Values after US20110039763A1, “TARGETED ANTIMICROBIAL MOIETIES” (C3 JIAN, INC., priority 2009, published 2011).)
